Laboratory results from patent publication US10059713B2 (Takeda Pharmaceutical Company Limited, priority 2014, dated 2018).

What follows are compounds tested against human GPR43 (Homo sapiens (Human), UniProt O15552) (assay: Ca-Flux functional assay: determination of agonist/positive allosteric modulator (PAM) activity). Settings: CHO-K1 Gα16 cells stably expressing human GPR43; compound added with EC20 sodium acetate; intracellular Ca2+ by FLIPR; does not distinguish agonist from PAM.
Sequence of human GPR43 (O15552 whole entry): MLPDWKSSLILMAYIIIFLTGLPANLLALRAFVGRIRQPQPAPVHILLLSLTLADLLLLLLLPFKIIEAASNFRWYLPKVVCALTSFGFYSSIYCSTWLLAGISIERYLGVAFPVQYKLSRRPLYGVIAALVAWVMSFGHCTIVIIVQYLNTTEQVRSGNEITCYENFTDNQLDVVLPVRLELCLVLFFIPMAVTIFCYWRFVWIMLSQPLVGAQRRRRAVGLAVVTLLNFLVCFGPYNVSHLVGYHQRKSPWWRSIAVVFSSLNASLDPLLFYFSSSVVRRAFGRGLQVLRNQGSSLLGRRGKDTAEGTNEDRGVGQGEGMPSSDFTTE
Type: cell-based
Procedure, shortened: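 Agonist or PAM activity read as intracellular Ca2+ rise by FLIPR after adding compound plus EC20 acetate, acetate EC20 set from a prior curve. Cells: CHO-K1 Gα16 with stable human GPR43. EC50 from ten-point half-log curves starting 10 μM.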
An EC50 of 252 nM was found for C=C(C)c1nc(C)nc2c(S(=O)(=O)c3ccccc3)c(N)[nH]c12 [Example 149, 7-(benzenesulfonyl)-2-methyl-4-(prop-1-en-2-yl)-5H-pyrrolo[3,2-d]pyrimidin-6-amine] in this work. An EC50 of 80 nM was found for Nc1[nH]c2c(C3=CCCCC3)ncnc2c1S(=O)(=O)C1CCCCC1 [Example 50, 4-(cyclohex-1-en-1-yl)-7-(cyclohexanesulfonyl)-5H-pyrrolo[3,2-d]pyrimidin-6-amine] in this work. An EC50 of 5 nM was found for Cc1nc(N2CCO[C@H](C)[C@@H]2C)c2[nH]c(N)c(S(=O)(=O)c3ccccc3F)c2n1 (racemic) [Example 275, 4-[(RS,SR)-2,3-dimethylmorpholin-4-yl]-7-(2-fluorobenzenesulfonyl)-2-methyl-5H-pyrrolo[3,2-d]pyrimidin-6-amine] in this work. An EC50 of 6 nM was found for Cc1nc(N2C[C@@H](C)OC[C@H]2C)c2[nH]c(N)c(S(=O)(=O)c3ccccc3)c2n1 [Example 217, 7-(benzenesulfonyl)-4-[(2R,5R)-2,5-dimethylmorpholin-4-yl]-2-methyl-5H-pyrrolo[3,2-d]pyrimidin-6-amine] in this work. An EC50 of 209 nM was found for Cc1nc(OC2CCOC2(C)C)c2[nH]c(N)c(S(=O)(=O)c3ccccc3)c2n1 (stereo not shown) [Example 258, 7-(benzenesulfonyl)-4-[(2,2-dimethyloxolan-3-yl)oxy]-2-methyl-5H-pyrrolo[3,2-d]pyrimidin-6-amine] in this work. An EC50 of 6 nM was found for Cc1nc(N2CCOC(C)(C)C2)c2[nH]c(N)c(S(=O)(=O)c3ccc(F)cc3F)c2n1 [Example 278, 7-(2,4-difluorobenzenesulfonyl)-4-(2,2-dimethylmorpholin-4-yl)-2-methyl-5H-pyrrolo[3,2-d]pyrimidin-6-amine] in this work. An EC50 of 288 nM was found for Nc1[nH]c2cc(C3=CCCCC3)cnc2c1S(=O)(=O)c1ccccc1 [Example 25, 3-(benzenesulfonyl)-6-(cyclohex-1-en-1-yl)-1H-pyrrolo[3,2-b]pyridin-2-amine] in this work. An EC50 of 58 nM was found for CCc1nc(C2CCCCC2)c2[nH]c(N)c(S(=O)(=O)c3ccccc3)c2n1 [Example 53, 7-(benzenesulfonyl)-4-cyclohexyl-2-ethyl-5H-pyrrolo[3,2-d]pyrimidin-6-amine] in this work. An EC50 of 32 nM was found for COc1ccc(S(=O)(=O)c2c(N)[nH]c3c(N4CCC(F)(F)CC4)ncnc23)cc1 [Example 68, 4-(4,4-difluoropiperidin-1-yl)-7-(4-methoxybenzenesulfonyl)-5H-pyrrolo[3,2-d]pyrimidin-6-amine] in this work. An EC50 of 43 nM was found for Cc1nc(N2CCOC(C)(C)C2)c2[nH]c(N)c(S(=O)(=O)c3cccc(F)c3)c2n1 [Example 191, 4-(2,2-dimethylmorpholin-4-yl)-7-(3-fluorobenzenesulfonyl)-2-methyl-5H-pyrrolo[3,2-d]pyrimidin-6-amine] in this work. An EC50 of 117 nM was found for N#CC1CN(c2ncnc3c(S(=O)(=O)c4ccccc4)c(N)[nH]c23)CCO1 (stereo not shown) [Example 216, 4-[6-amino-7-(benzenesulfonyl)-5H-pyrrolo[3,2-d]pyrimidin-4-yl]morpholine-2-carbonitrile] in this work. An EC50 of 51 nM was found for Cc1nc(OC(C)C)c2[nH]c(N)c(S(=O)(=O)c3ccccc3)c2n1 [Example 242, 7-(benzenesulfonyl)-2-methyl-4-(propan-2-yloxy)-5H-pyrrolo[3,2-d]pyrimidin-6-amine] in this work. An EC50 of 166 nM was found for Nc1[nH]c2c(C3CCCCC3)nc(C3CC3)nc2c1S(=O)(=O)c1ccccc1 [Example 131, 7-(benzenesulfonyl)-4-cyclohexyl-2-cyclopropyl-5H-pyrrolo[3,2-d]pyrimidin-6-amine] in this work. An EC50 of 14 nM was found for Cc1cccc(-c2nc(C)nc3c(S(=O)(=O)c4ccccc4)c(N)[nH]c23)c1 [Example 148, 7-(benzenesulfonyl)-2-methyl-4-(3-methylphenyl)-5H-pyrrolo[3,2-d]pyrimidin-6-amine] in this work. An EC50 of 53 nM was found for CC(C)Oc1ccc(S(=O)(=O)c2c(N)[nH]c3c(N4CCOC(C)C4)ncnc23)cc1 (stereo not shown) [Example 126, 4-(2-methylmorpholin-4-yl)-7-[4-(propan-2-yloxy)benzenesulfonyl]-5H-pyrrolo[3,2-d]pyrimidin-6-amine] in this work. An EC50 of 131 nM was found for Nc1[nH]c2c(OCC3CC3)ncnc2c1S(=O)(=O)c1ccccc1 [Example 55, 7-(benzenesulfonyl)-4-(cyclopropylmethoxy)-5H-pyrrolo[3,2-d]pyrimidin-6-amine] in this work. An EC50 of 373 nM was found for Nc1[nH]c2c(OCC3CC3(F)F)ncnc2c1S(=O)(=O)c1ccccc1 (stereo not shown) [Example 175, 7-(benzenesulfonyl)-4-[(2,2-difluorocyclopropyl)methoxy]-5H-pyrrolo[3,2-d]pyrimidin-6-amine] in this work. An EC50 of 9 nM was found for Nc1[nH]c2c(N3CCC(F)(F)CC3)ncnc2c1S(=O)(=O)c1ccccc1F [Example 74, 4-(4,4-difluoropiperidin-1-yl)-7-(2-fluorobenzenesulfonyl)-5H-pyrrolo[3,2-d]pyrimidin-6-amine] in this work. An EC50 of 267 nM was found for Nc1[nH]c2c(CCC3CC3)ncnc2c1S(=O)(=O)c1ccccc1 [Example 13, 7-(benzenesulfonyl)-4-(2-cyclopropylethyl)-5H-pyrrolo[3,2-d]pyrimidin-6-amine] in this work. An EC50 of 5090 nM was found for COC(=O)Nc1[nH]c2c(C3=CCCCC3)ncnc2c1S(=O)(=O)c1ccccc1 [Example 17, Methyl-N-[7-(benzenesulfonyl)-4-(cyclohex-1-en-1-yl)-5H-pyrrolo[3,2-d]pyrimidin-6-yl]carbamate] in this work. An EC50 of 5 nM was found for CNc1nc(N2CCOC(C)C2)c2[nH]c(N)c(S(=O)(=O)c3ccccc3F)c2n1 (stereo not shown) [Example 298, 7-(2-fluorobenzenesulfonyl)-N2-methyl-4-(2-methylmorpholin-4-yl)-5H-pyrrolo[3,2-d]pyrimidine-2,6-diamine] in this work. An EC50 of 18 nM was found for Cc1nc(N2C[C@@H](C)O[C@@H](C)C2)c2[nH]c(N)c(S(=O)(=O)c3cccc(F)c3)c2n1 [Example 179, 4-[(2R,6S)-2,6-dimethylmorpholin-4-yl]-7-(3-fluorobenzenesulfonyl)-2-methyl-5H-pyrrolo[3,2-d]pyrimidin-6-amine] in this work. An EC50 of 4 nM was found for Cc1nc(N2CCO[C@H](C(F)(F)F)C2)c2[nH]c(N)c(S(=O)(=O)c3c(F)cccc3F)c2n1 [Example 294, 7-(2,6-Difluorobenzenesulfonyl)-2-methyl-4-[(2S)-2-(trifluoromethyl)morpholin-4-yl]-5H-pyrrolo[3,2-d]pyrimidin-6-amine] in this work. An EC50 of 83 nM was found for CC(C)C1CN(c2ncnc3c(S(=O)(=O)c4ccccc4)c(N)[nH]c23)CCO1 (stereo not shown) [Example 184, 7-(benzenesulfonyl)-4-[2-(propan-2-yl)morpholin-4-yl]-5H-pyrrolo[3,2-d]pyrimidin-6-amine] in this work. An EC50 of 475 nM was found for Cc1nc(OCC2CC2)c2[nH]c(N)c(S(=O)(=O)c3cccc(F)c3)c2n1 [Example 194, 4-(cyclopropylmethoxy)-7-(3-fluorobenzenesulfonyl)-2-methyl-5H-pyrrolo[3,2-d]pyrimidin-6-amine] in this work. An EC50 of 797 nM was found for Nc1[nH]c2c(-n3cccn3)ncnc2c1S(=O)(=O)c1ccccc1 [Example 128, 7-(benzenesulfonyl)-4-(1H-pyrazol-1-yl)-5H-pyrrolo[3,2-d]pyrimidin-6-amine] in this work. An EC50 of 1400 nM was found for CN(CC1CCCCO1)c1ncnc2c(S(=O)(=O)c3ccccc3)c(N)[nH]c12 (stereo not shown) [Example 91, 7-(benzenesulfonyl)-4-N-methyl-4-N-(oxan-2-ylmethyl)-5H-pyrrolo[3,2-d]pyrimidine diamine] in this work. An EC50 of 131 nM was found for Cc1ccccc1S(=O)(=O)c1c(N)[nH]c2c(N3CCOC(C)C3)ncnc12 (stereo not shown) [Example 120, 7-(2-methylbenzenesulfonyl)-4-(2-methylmorpholin-4-yl)-5H-pyrrolo[3,2-d]pyrimidin-6-amine] in this work.
